From publication PMC9732253, “Inhibition of the Phosphatidylinositol-3 Kinase Pathway Using Bimiralisib in Loss-of-Function NOTCH1-Mutant Head and Neck Cancer” (The Oncologist, 2022)

Method: All patients received 140 mg bimiralisib (PQR309) orally once daily on 2 consecutive days followed by 5 days without treatment weekly until unacceptable toxicity, tumor progression, patient request for withdrawal, investigator judgment, or death.
Radiologic tumor assessments were performed using computed tomography at baseline and every 6 weeks. Safety was continuously monitored.

## Nc1cc(C(F)(F)F)c(-c2nc(N3CCOCC3)nc(N3CCOCC3)n2)cn1 [Bimiralisib, 5-(4,6-dimorpholino-1,3,5-triazin-2-yl)-4-(trifluoromethyl)pyridin-2-amine]
N = 8
  General disorders and administration site conditions, Grade 1, total number of events: 6
  General disorders and administration site conditions, Grade 2, patients: 1 (12.5) n (%)
  General disorders and administration site conditions, Grade 2, total number of events: 1
  General disorders and administration site conditions, Grade 3/4, patients: 1 (12.5) n (%)
  General disorders and administration site conditions, Grade 3/4, total number of events: 1
  Hemorrhage, Grade 1, patients: 0 n (%)
  Hemorrhage, Grade 1, total number of events: 0
  Hemorrhage, Grade 2, patients: 0 n (%)
  Hemorrhage, Grade 2, total number of events: 0
  Hemorrhage, Grade 3/4, patients: 1 (12.5) n (%)
  Hemorrhage, Grade 3/4, total number of events: 1
  Hyperglycemia, Grade 1, patients: 1 (12.5) n (%)
  Hyperglycemia, Grade 1, total number of events: 1
  Hyperglycemia, Grade 2, patients: 0 n (%)
  Hyperglycemia, Grade 2, total number of events: 0
  Hyperglycemia, Grade 3/4, patients: 2 (25.0) n (%)
  Hyperglycemia, Grade 3/4, total number of events: 2
  Hypocalcemia, Grade 1, patients: 0 n (%)
  Hypocalcemia, Grade 1, total number of events: 0
  Hypocalcemia, Grade 2, patients: 1 (12.5) n (%)
  Hypocalcemia, Grade 2, total number of events: 1
  Hypocalcemia, Grade 3/4, patients: 0 n (%)
  Hypocalcemia, Grade 3/4, total number of events: 0
  Hypotension, Grade 1, patients: 1 (12.5) n (%)
  Hypotension, Grade 1, total number of events: 1
  Hypotension, Grade 2, patients: 0 n (%)
  Hypotension, Grade 2, total number of events: 0
  Hypotension, Grade 3/4, patients: 0 n (%)
  Hypotension, Grade 3/4, total number of events: 0
  Infections and infestations, Grade 3/4, patients: 3 (37.5) n (%)
  Injury, poisoning and procedural complications, Grade 1, patients: 1 (12.5) n (%)
  Injury, poisoning and procedural complications, Grade 1, total number of events: 1
  Injury, poisoning and procedural complications, Grade 2, patients: 0 n (%)
  Injury, poisoning and procedural complications, Grade 2, total number of events: 0
  Injury, poisoning and procedural complications, Grade 3/4, patients: 0 n (%)
  Injury, poisoning and procedural complications, Grade 3/4, total number of events: 0
  Investigations, Grade 1, patients: 3 (37.5) n (%)
  Investigations, Grade 1, total number of events: 3
  Investigations, Grade 2, patients: 0 n (%)
  Investigations, Grade 2, total number of events: 0
  Investigations, Grade 3/4, patients: 1 (12.5) n (%)
  Investigations, Grade 3/4, total number of events: 2
  Laryngeal stenosis, Grade 1, patients: 0 n (%)
  Laryngeal stenosis, Grade 1, total number of events: 0
  Laryngeal stenosis, Grade 2, patients: 0 n (%)
  Laryngeal stenosis, Grade 2, total number of events: 0
  Laryngeal stenosis, Grade 3/4, patients: 1 (12.5) n (%)
  Laryngeal stenosis, Grade 3/4, total number of events: 1
  Metabolism and nutrition disorders, Grade 1, patients: 1 (12.5) n (%)
  Metabolism and nutrition disorders, Grade 1, total number of events: 1
  Metabolism and nutrition disorders, Grade 2, patients: 2 (25.0) n (%)
  Metabolism and nutrition disorders, Grade 2, total number of events: 3
  Metabolism and nutrition disorders, Grade 3/4, patients: 2 (25.0) n (%)
  Metabolism and nutrition disorders, Grade 3/4, total number of events: 2
  Musculoskeletal and connective tissue disorders, Grade 1, patients: 1 (12.5) n (%)
  Musculoskeletal and connective tissue disorders, Grade 1, total number of events: 2
  Musculoskeletal and connective tissue disorders, Grade 2, patients: 0 n (%)
  Musculoskeletal and connective tissue disorders, Grade 2, total number of events: 0
  Musculoskeletal and connective tissue disorders, Grade 3/4, patients: 0 n (%)
  Musculoskeletal and connective tissue disorders, Grade 3/4, total number of events: 0
  Nausea, Grade 1, patients: 1 (12.5) n (%)
  Nausea, Grade 1, total number of events: 1
  Nausea, Grade 2, patients: 2 (25.0) n (%)
  Nausea, Grade 2, total number of events: 2
  Nausea, Grade 3/4, patients: 0 n (%)
  Nausea, Grade 3/4, total number of events: 0
  Neck pain, Grade 1, patients: 1 (12.5) n (%)
  Neck pain, Grade 1, total number of events: 1
  Neck pain, Grade 2, patients: 0 n (%)
  Neck pain, Grade 2, total number of events: 0
  Neck pain, Grade 3/4, patients: 0 n (%)
  Neck pain, Grade 3/4, total number of events: 0
  Nervous system disorders, Grade 1, patients: 1 (12.5) n (%)
  Nervous system disorders, Grade 1, total number of events: 2
  Nervous system disorders, Grade 2, patients: 1 (12.5) n (%)
  Nervous system disorders, Grade 2, total number of events: 1
  Nervous system disorders, Grade 3/4, patients: 0 n (%)
  Nervous system disorders, Grade 3/4, total number of events: 0
  Osteomyelitis acute, Grade 1, patients: 0 n (%)
  Osteomyelitis acute, Grade 1, total number of events: 0
  Osteomyelitis acute, Grade 2, patients: 0 n (%)
  Osteomyelitis acute, Grade 2, total number of events: 0
  Osteomyelitis acute, Grade 3/4, patients: 1 (12.5) n (%)
  Osteomyelitis acute, Grade 3/4, total number of events: 1
  Pain in jaw, Grade 1, patients: 1 (12.5) n (%)
  Pain in jaw, Grade 1, total number of events: 1
  Pain in jaw, Grade 2, patients: 0 n (%)
  Pain in jaw, Grade 2, total number of events: 0
  Pain in jaw, Grade 3/4, patients: 0 n (%)
  Pain in jaw, Grade 3/4, total number of events: 0
  Platelet count decreased, Grade 1, patients: 1 (12.5) n (%)
  Platelet count decreased, Grade 1, total number of events: 1
  Platelet count decreased, Grade 2, patients: 0 n (%)
  Platelet count decreased, Grade 2, total number of events: 0
  Platelet count decreased, Grade 3/4, patients: 0 n (%)
  Platelet count decreased, Grade 3/4, total number of events: 0
  Pneumonia aspiration, Grade 1, patients: 0 n (%)
  Pneumonia aspiration, Grade 1, total number of events: 0
  Pneumonia aspiration, Grade 2, patients: 0 n (%)
  Pneumonia aspiration, Grade 2, total number of events: 0
  Pneumonia aspiration, Grade 3/4, patients: 2 (25.0) n (%)
  Pneumonia aspiration, Grade 3/4, total number of events: 2
  Presyncope, Grade 1, patients: 0 n (%)
  Presyncope, Grade 1, total number of events: 0
  Presyncope, Grade 2, patients: 1 (12.5) n (%)
  Presyncope, Grade 2, total number of events: 1
  Presyncope, Grade 3/4, patients: 0 n (%)
  Presyncope, Grade 3/4, total number of events: 0
  Pruritus, Grade 1, patients: 1 (12.5) n (%)
  Pruritus, Grade 1, total number of events: 1
  Pruritus, Grade 2, patients: 0 n (%)
  Pruritus, Grade 2, total number of events: 0
  Pruritus, Grade 3/4, patients: 0 n (%)
  Pruritus, Grade 3/4, total number of events: 0
  Psychiatric disorders, Grade 1, patients: 2 (25.0) n (%)
  Psychiatric disorders, Grade 1, total number of events: 2
  Psychiatric disorders, Grade 2, patients: 0 n (%)
  Psychiatric disorders, Grade 2, total number of events: 0
  Psychiatric disorders, Grade 3/4, patients: 0 n (%)
  Psychiatric disorders, Grade 3/4, total number of events: 0
  Pyrexia, Grade 1, patients: 1 (12.5) n (%)
  Pyrexia, Grade 1, total number of events: 1
  Pyrexia, Grade 2, patients: 0 n (%)
  Pyrexia, Grade 2, total number of events: 0
  Pyrexia, Grade 3/4, patients: 0 n (%)
  Pyrexia, Grade 3/4, total number of events: 0
  Rash, Grade 1, patients: 2 (25.0) n (%)
  Rash, Grade 1, total number of events: 2
  Rash, Grade 2, patients: 0 n (%)
  Rash, Grade 2, total number of events: 0
  Rash, Grade 3/4, patients: 0 n (%)
  Rash, Grade 3/4, total number of events: 0
  Renal and urinary disorders, Grade 1, patients: 1 (12.5) n (%)
  Renal and urinary disorders, Grade 1, total number of events: 1
  Renal and urinary disorders, Grade 2, patients: 0 n (%)
  Renal and urinary disorders, Grade 2, total number of events: 0
  Renal and urinary disorders, Grade 3/4, patients: 1 (12.5) n (%)
  Renal and urinary disorders, Grade 3/4, total number of events: 1
  Renal injury, Grade 1, patients: 0 n (%)
  Renal injury, Grade 1, total number of events: 0
  Renal injury, Grade 2, patients: 0 n (%)
  Renal injury, Grade 2, total number of events: 0
  Renal injury, Grade 3/4, patients: 1 (12.5) n (%)
  Renal injury, Grade 3/4, total number of events: 1
  Respiratory, thoracic and mediastinal disorders, Grade 1, patients: 1 (12.5) n (%)
  Respiratory, thoracic and mediastinal disorders, Grade 1, total number of events: 1
  Respiratory, thoracic and mediastinal disorders, Grade 2, patients: 0 n (%)
  Respiratory, thoracic and mediastinal disorders, Grade 2, total number of events: 0
  Respiratory, thoracic and mediastinal disorders, Grade 3/4, patients: 3 (37.5) n (%)
  Respiratory, thoracic and mediastinal disorders, Grade 3/4, total number of events: 4
  Seizure, Grade 1, patients: 1 (12.5) n (%)
  Seizure, Grade 1, total number of events: 1
  Seizure, Grade 2, patients: 0 n (%)
  Seizure, Grade 2, total number of events: 0
  Seizure, Grade 3/4, patients: 0 n (%)
  Seizure, Grade 3/4, total number of events: 0
  Sepsis, Grade 3/4, total number of events: 1
  Skin and subcutaneous tissue disorders, Grade 1, patients: 2 (25.0) n (%)
  Skin and subcutaneous tissue disorders, Grade 1, total number of events: 4
  Skin and subcutaneous tissue disorders, Grade 2, patients: 0 n (%)
  Skin and subcutaneous tissue disorders, Grade 2, total number of events: 0
  Skin and subcutaneous tissue disorders, Grade 3/4, patients: 0 n (%)
  Skin and subcutaneous tissue disorders, Grade 3/4, total number of events: 0
  Skin infection, Grade 3/4, total number of events: 1
  Sunburn, Grade 1, patients: 1 (12.5) n (%)
  Sunburn, Grade 1, total number of events: 1
  Sunburn, Grade 2, patients: 0 n (%)
  Sunburn, Grade 2, total number of events: 0
  Sunburn, Grade 3/4, patients: 0 n (%)
  Sunburn, Grade 3/4, total number of events: 0
  Tinnitus, Grade 1, patients: 1 (12.5) n (%)
  Tinnitus, Grade 1, total number of events: 1
  Tinnitus, Grade 2, patients: 0 n (%)
  Tinnitus, Grade 2, total number of events: 0
  Tinnitus, Grade 3/4, patients: 0 n (%)
  Tinnitus, Grade 3/4, total number of events: 0
  Urinary tract discomfort, Grade 1, patients: 1 (12.5) n (%)
  Urinary tract discomfort, Grade 1, total number of events: 1
  Urinary tract discomfort, Grade 2, patients: 0 n (%)
  Urinary tract discomfort, Grade 2, total number of events: 0
  Urinary tract discomfort, Grade 3/4, patients: 0 n (%)
  Urinary tract discomfort, Grade 3/4, total number of events: 0
  Vascular disorders, Grade 1, patients: 1 (12.5) n (%)
  Vascular disorders, Grade 1, total number of events: 1
  Vascular disorders, Grade 2, patients: 0 n (%)
  Vascular disorders, Grade 2, total number of events: 0
  Vascular disorders, Grade 3/4, patients: 1 (12.5) n (%)
  Vascular disorders, Grade 3/4, total number of events: 1
  Vomiting, Grade 1, patients: 0 n (%)
  Vomiting, Grade 1, total number of events: 0
  Vomiting, Grade 2, patients: 2 (25.0) n (%)
  Vomiting, Grade 2, total number of events: 2
  Vomiting, Grade 3/4, patients: 0 n (%)
  Vomiting, Grade 3/4, total number of events: 0
  Wound infection, Grade 3/4, total number of events: 0
Of 8
  Patients with at least one treatment-emergent AE: 8 patients
on-treatment period
  Nonfatal SAEs not related to bimiralisib: 10
Patient 4, related to treatment
  Time to normalization of grade 3 elevated alanine and aspartate aminotransferase after therapy discontinuation: 28 days
